In US9107411B2, “Indolecarboxamides and benzimidazolecarboxamides as insecticides and acaricides” (BAYER INTELLECTUAL PROPERTY GMBH, priority 2011, dated 2015):
Read-outs that look alike come from different tables or passages of the source.

Key:
[1] = test system: Spodoptera frugiperda; assay: Spodoptera frugiperda test (SPODFR spray treatment); assay type: in vivo; conditions: application rate 100 g/ha; maize leaf discs; after 7 days
Protocol: Spodoptera frugiperda Test (SPODFR Spray Treatment) Solvent: 78.0 parts by weight of acetone • • 1.5 parts by weight of dimethylformamide To produce an appropriate active ingredient formulation, 1 part by weight of active ingredient is mixed with the stated amounts of solvent and emulsifier, and the concentrate is diluted with emulsifier-containing water to the desired concentration. Leaf discs of maize (Zea mays) are sprayed with an active ingredient formulation of the desired concentration and, after drying, populated with caterpillars of the armyworm (Spodoptera frugiperda). After 7 days, the efficacy in % is determined 100% means that all of the caterpillars have been killed; 0% means that none of the caterpillars have been killed.

[2] = test system: Phaedon cochleariae; assay: Phaedon test (PHAECO spray treatment); assay type: in vivo; conditions: application rate 100 g/ha, Chinese cabbage leaf discs, after 7 days
Protocol: Phaedon Test ([…] Spray Treatment) Solvent: 78.0 parts by weight of acetone • • 1.5 parts by weight of dimethylformamide Emulsifier: 0.5 part by weight of alkylaryl polyglycol ether To produce an appropriate active ingredient formulation, 1 part by weight of active ingredient is mixed with the stated amounts of solvent and emulsifier, and the concentrate is diluted with emulsifier-containing water to the desired concentration. Leaf discs of Chinese cabbage (Brassica pekinensis) are sprayed with an active ingredient formulation of the desired concentration and, after drying, populated with larvae of the mustard beetle (Phaedon cochleariae). After 7 days, the efficacy in % is determined. 100% means that all of the beetle larvae have been killed; 0% means that none of the beetle larvae have been killed.

[3] = test system: Tetranychus urticae; assay: Tetranychus test, OP-resistant (TETRUR spray treatment); assay type: in vivo; conditions: bean leaf discs, after 6 days
Protocol: Tetranychus Test, OP-Resistant (TETRUR Spray Treatment)
Solvent: 78.0 parts by weight of acetone • • 1.5 parts by weight of dimethylformamide
Emulgator: 0.5 part by weight of alkylaryl polyglycol ether
To produce an appropriate active ingredient formulation, 1 part by weight of active ingredient is mixed with the stated amounts of solvent and emulsifier, and the concentrate is diluted with emulsifier-containing water to the desired concentration.
Discs of bean leaves (Phaseolus vulgaris) infested by all stages of the red spider mite (Tetranychus urticae) are sprayed with an active ingredient formulation of the desired concentration.
After 6 days, the efficacy in % is determined. 100% means that all of the spider mites have been killed; 0% means that none of the spider mites have been killed.

[4] = logP (HPLC-MS); assay type: physicochemical
[5] = HPLC, reversed-phase column (C18), 43° C., acidic range pH 2.7, EEC directive 79/831 Annex V.A8, two values = both regioisomers (G = N)

log p [4, 5]	chromatographic logP ([4]; HPLC, reversed-phase column (C18), 43° C., acidic range pH 2.7, EEC directive 79/831 Annex V.A8, two values = both regioisomers (G = N), read-out: log p)	chromatographic logP ([4]; HPLC-MS)	Compound	efficacy in % [1] [%]	efficacy in % [2] [%]	efficacy in % ([3]; application rate 100 g/ha) [%]	pest or weed control at 100 g/ha ([2]; Phaedon cochleariae, foliar, 168 h, read-out: efficacy in %) [%]	efficacy in % ([3]; application rate 500 g/ha) [%]
3.85	–	–	CCn1c(C(=O)NC(c2cc(F)cc(Cl)c2)C(F)(F)F)cc2cc(C(=O)NC3(C#N)CC3)c(C)cc21 (stereo not shown) [Compound 293]	100	100	100	–	–
4.16	–	–	CCn1c(C(=O)NC(c2cc(Cl)c(F)c(Cl)c2)C(F)(F)F)cc2cc(C(=O)NC3CC3)c(C)cc21 (stereo not shown) [Compound 296]	100	100	100	–	–
3.99	–	–	CCn1c(C(=O)NC(c2ccc(Cl)c(Cl)c2)C(F)(F)F)cc2cc(C(=O)NC3CC3)c(C)cc21 (stereo not shown) [Compound 297]	100	100	100	–	–
3.77	–	–	CCn1c(C(=O)NC(c2cc(F)cc(Cl)c2)C(F)(F)F)cc2cc(C(=O)NC3CC3)c(C)cc21 (stereo not shown) [Compound 298]	100	100	100	–	–
–	3.6	3.59	N#CC1(NC(=O)c2cc3cc(C(=O)NC(c4cccc(C(F)(F)F)c4)C(F)(F)F)n(C4CC4)c3cc2Cl)CC1 (stereo not shown) [Compound 302, 6-chloro-N^5-(1-cyanocyclopropyl)-1-cyclopropyl-N^2-{2,2,2-trifluoro-1-[3-(trifluoromethyl)phenyl]ethyl}-1H-indole-2,5-dicarboxamide]	100	–	100	100	–
4.24	–	–	CCn1c(C(=O)NC(c2ccc(F)c(C(F)(F)F)c2)C(F)(F)F)cc2cc(C(=O)NC3CCC3)c(C)cc21 (stereo not shown) [Compound 304]	100	100	–	–	100
4.16	–	–	CCn1c(C(=O)NC(c2ccc(F)c(C(F)(F)F)c2)C(F)(F)F)cc2cc(C(=O)NC(C)C)c(C)cc21 (stereo not shown) [Compound 305]	100	100	100	–	–
3.80	–	–	CCn1c(C(=O)NC(c2ccc3c(c2)OC(F)(F)O3)C(F)(F)F)cc2cc(C(=O)NC3(C#N)CC3)c(C)cc21 (stereo not shown) [Compound 308]	100	100	90	–	–
4.35	–	–	CCN(CC)C(=O)c1cc2cc(C(=O)NC(c3ccc(F)c(Cl)c3)C(F)(F)F)n(CC)c2cc1C (stereo not shown) [Compound 320]	100	100	100	–	–
